Experimental data: EP0596929B1, “AMIDE DERIVATIVES OF ANTIBIOTIC A 40926” (GRUPPO LEPETIT S.p.A., priority 1991, dated 1993)

Test system: highly glycopeptide-resistant enterococci
Settings: summary of Table III

| Compound | in vitro activity against highly glycopeptide-resistant enterococci (in words) |
| --- | --- |
| CN[C@H](CC(C)C)C(=O)N[C@H]1C(=O)N[C@@H](CC(N)=O)C(=O)N[C@H]2C(=O)N[C@H]3C(=O)N[C@H](C(=O)N[C@H](C(=O)O)c4cc(O)cc(O)c4-c4cc3ccc4O)[C@H](O)c3ccc(c(Cl)c3)Oc3cc2cc(c3O[C@@H]2O[C@H](CO)[C@@H](O)[C@H](O)[C@H]2O[C@H]2C[C@](C)(N)[C@H](O)[C@H](C)O2)Oc2ccc(cc2Cl)[C@H]1O [vancomycin] | highly resistant |
| Teicoplanin | highly resistant |
